From patent publication US20240316020A1, “Novel Pyridine Compounds” (ICAGEN, LLC, priority 2021, published 2024)

Assays:
human Kv7.2 = human Kv7.2 (Homo sapiens (Human), UniProt O43526); experiment: SyncroPatch 384 electrophysiology, CHO cells stably expressing human Kv7.2; type: cell-based
Experimental: (§1) The potency of Kv7 potentiators was determined using the SyncroPatch 384 (Nanion) high throughput electrophysiology platform.
(§2) CHO cells stably expressing either human Kv7.2, Kv7.4 or Kv7.5/7.3 under a constitutive CMV promoter were used for these studies. Cells were maintained in F12 Hams+1 mM L-glutamine (Hyclone) supplemented with 10% FBS (Sigma), 0.3×NEAA (Non-essential Gamino-acids) and 400 ug/ml G418 at 37° C. in 5% CO2. Cells were cultured in T-225 flasks (Nunc) for 2-3 days to reach 85-95% confluence prior to electrophysiological recording.
(§3) Earle's balanced salt solution (in mM): 135 NaCl, 5.4 KCl, 5 Glucose, 2 CaCl2, 1 MgCl2, 5 HEPES, pH 7.4. Seal enhancer solution (in mM): 90 NaCl, 3 KCl, 35 CaCl2, 10 MgCl2, 10 HEPES, pH 7.4. Extracellular recording solution (in mM): 71 NaCl, 70 NMDG, 13 KCl, 5 Glucose, 2 CaCl2, 1 MgCl2, 10 HEPES, pH 7.4. Intracellular recording solution (in mM): 130 KF, 20 KCl, 4 EGTA, 10 HEPES, 2 EDTA, 0.01 Escin, pH 7.2.
(§4) Cells were harvested for electrophysiological recording upon reaching appropriate confluence. Cells were first washed in DPBS (Hyclone, Cat #SH30028.03) and then 2 ml of Accutase (MP Biomedicals #1000449) was added at 28° C. until ˜90% of cells were suspended. F12 HAM's media+1 mM L-glutamine (Hyclone, SH30026.02) was then added to the flask to dilute the accutase. Cells were then triturated until a single cell suspension was achieved, a cell count was performed, and cells were centrifuged for 2 min. at 1,000 rpm. Media was then aspirated, and cells were resuspended in Earle's balanced salt solution to a concentration of 0.75×10^6 cells/ml and allowed to recover for 25 min at 10° C.
(§5) At the beginning of each assay, 20 μl of cell suspension was dispensed into each well of a multi-hole 384-well SyncroPatch chip by the onboard pipettor. Cell sealing was initiated, and seal enhancer solution was added to facilitate seal formation. Upon completion of sealing, cells were washed 3 times with extracellular recording solution and the assay voltage protocol was started. Human Kv7.2, Kv7.4 or Kv7.5/7.3 channels were evaluated using a voltage protocol in which cells were voltage-clamped at a holding potential of −60 mV. Potassium currents were continuously activated with a series of three voltage steps to −30 mV for 3 seconds, 40 mV for 1 second and −90 mV for 4 seconds with 12 seconds between successive voltage sweeps. Potassium currents were measured from the −90 mV repolarizing step. Baseline current was assessed for 3.5 minutes prior to the addition of 5.6 μM zinc pyrithione (1 μM for Kv7.4). Kv7.2, Kv7.4 or Kv7.5/7.3 current in the presence of zinc pyrithione was acquired over five minutes to allow channels to reach steady state activity prior to addition of test agents. Channel activity was monitored for three minutes preceding the addition of 30 μM ML-213 (3 minutes) to achieve maximum activation.
(§6) Data were collected on the SyncroPatch platform using PatchControl software (Nanion) and processed and analyzed using DataControl Software (Nanion). Percent activation was calculated from potassium current as follows: The average current for the 5 sweeps in the presence of zinc pyrithione immediately preceding test agent addition was taken as the ‘control’ data. Likewise, the average potassium current in the presence of test agents 5 sweeps immediately preceding addition of 30 μM ML-213 was determined for ‘drug’ data. The average potassium current 5 sweeps immediately prior to addition of 150 mM TEA+10 μM XE-991 was determined for ‘max activation’ data while average currents from 5 sweeps immediately following addition of TEA was determined for ‘max inhibition’ data. Percent activation for each of the 384-wells of a sealchip was calculated as ((‘drug’−‘max inhibition’)/(‘max activation’−‘max inhibition’))*100 with Pipeline Pilot (Accelrys). […]

[1] = Human liver microsomal clearance; type: in vitro ADME; details: both sexes, liver microsomes, Table B, 0.5 μM compound, 0.25 mg/mL microsomes, NADPH, 37° C., read-out: Human liver microsomal intrinsic clearance CLint
Experimental: Pooled mixed gender human liver microsomes were purchased from BioIVT at a concentration of 20 mg protein/mL and stored at −80° C. Incubations were conducted in V-bottomed 350 μL polypropylene 96-well plates. Compounds were diluted in phosphate buffer (final concentrations 0.5 μM compound, 0.5% DMSO) and mixed with diluted liver microsomes (fc 0.25 mg/mL). This mixture was aliquoted onto the assay plate (six wells per compound) and pre-warmed at 37° C. for ten minutes. Addition of NADPH (fc 0.5 mM, final incubation volume 100 μL) to each well started the time course. Reactions were stopped at 0.5, 3, 5, 10, 20 & 30 minutes by addition of 150 μL acetonitrile containing internal standard (IS; 0.125 μg/mL daidzein) and stopped samples were removed to a clean polypropylene plate. At the end of the assay the plate was refrigerated for an hour and then centrifuged at 3000 rpm for 10 minutes at 4° C. A sample of the supernatant was removed to a fresh plate and diluted 10-fold with 50:50 acetonitrile:water, then heat sealed. Analysis was by liquid chromatography coupled with tandem mass spectrometry (LC-MS/MS) for analyte and IS levels. Ratios of the analyte and IS peak areas were generated for results calculation (IS ratio). Dextromethorphan and verapamil were included in each experiment as controls for high clearance compounds. IS ratio data were converted into natural log values which were plotted against time and a linear regression fit applied. The slope of the line was returned and converted into the elimination constant (kel) by multiplying by −1. The elimination constant was used to calculate the in vitro CLint: in vitro CLint (μL/min/mg protein) is kel* (1000/protein conc in mg/mL).

human Kv7.5/7.3 = human Kv7.5/7.3 (Homo sapiens (Human), UniProt O43525+Q9NR82); experiment: SyncroPatch 384 electrophysiology, CHO cells stably expressing human Kv7.5/7.3; type: cell-based; details: Table A; for Kv7.5/7.3/Kv7.2 selectivity ratio: Kv7.5/7.3 EC50 over Kv7.2 EC50
Experimental: as §1, §2, §3, §4, §5, §6

human Kv7.4 = human Kv7.4 (Homo sapiens (Human), UniProt P56696); experiment: SyncroPatch 384 electrophysiology, CHO cells stably expressing human Kv7.4; type: cell-based; details: Table C; for Kv7.4/Kv7.2 selectivity ratio: Kv7.4 EC50 over Kv7.2 EC50
Experimental: as §1, §2, §3
Cells were harvested for electrophysiological recording upon reaching appropriate confluence. Cells were first washed in DPBS (Hyclone, Cat #SH30028.03) and then 2 ml of Accutase (MP Biomedicals #1000449) was added at 28° C. until ˜90% of cells were suspended. F12 HAM's media+1 mM L-glutamine (Hyclone, SH30026.02) was then added to the flask to dilute the accutase. […]
At the beginning of each assay, 20 μl of cell suspension was dispensed into each well of a multi-hole 384-well SyncroPatch chip by the onboard pipettor. […] Human Kv7.2, Kv7.4 or Kv7.5/7.3 channels were evaluated using a voltage protocol in which cells were voltage-clamped at a holding potential of −60 mV. […] Potassium currents were measured from the −90 mV repolarizing step. Baseline current was assessed for 3.5 minutes prior to the addition of 5.6 μM zinc pyrithione (1 μM for Kv7.4). […] Channel activity was monitored for three minutes preceding the addition of 30 μM ML-213 (3 minutes) to achieve maximum activation.
as §6, with “data.” for “data. Percent activation for each of the 384-wells of a sealchip was calculated as ((‘drug’−‘max inhibition’)/(‘max activation’−‘max inhibition’))*100 with Pipeline Pilot (Accelrys).”

[2] = Table 1, CHO cells, potassium current at -90 mV step, in presence of zinc pyrithione

Sequence of human Kv7.4 (P56696 whole entry): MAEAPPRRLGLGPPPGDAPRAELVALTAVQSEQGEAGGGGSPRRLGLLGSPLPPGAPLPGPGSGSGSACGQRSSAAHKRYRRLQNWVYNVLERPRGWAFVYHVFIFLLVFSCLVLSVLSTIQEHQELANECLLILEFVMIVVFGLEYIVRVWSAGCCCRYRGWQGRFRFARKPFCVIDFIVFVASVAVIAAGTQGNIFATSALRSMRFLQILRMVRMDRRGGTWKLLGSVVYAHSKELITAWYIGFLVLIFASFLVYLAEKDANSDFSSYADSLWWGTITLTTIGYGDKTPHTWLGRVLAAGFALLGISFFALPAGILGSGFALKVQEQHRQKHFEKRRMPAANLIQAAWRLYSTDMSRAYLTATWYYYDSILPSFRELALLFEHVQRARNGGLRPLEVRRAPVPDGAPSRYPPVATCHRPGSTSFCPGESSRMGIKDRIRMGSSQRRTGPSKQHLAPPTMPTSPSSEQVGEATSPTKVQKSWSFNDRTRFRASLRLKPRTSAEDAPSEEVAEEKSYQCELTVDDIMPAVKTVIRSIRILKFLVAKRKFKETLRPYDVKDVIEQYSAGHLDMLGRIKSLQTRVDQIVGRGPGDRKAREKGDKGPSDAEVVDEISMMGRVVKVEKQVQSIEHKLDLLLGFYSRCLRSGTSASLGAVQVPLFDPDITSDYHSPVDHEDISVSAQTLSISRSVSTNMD
Sequence of human Kv7.5/7.3 (Q9NR82 whole entry): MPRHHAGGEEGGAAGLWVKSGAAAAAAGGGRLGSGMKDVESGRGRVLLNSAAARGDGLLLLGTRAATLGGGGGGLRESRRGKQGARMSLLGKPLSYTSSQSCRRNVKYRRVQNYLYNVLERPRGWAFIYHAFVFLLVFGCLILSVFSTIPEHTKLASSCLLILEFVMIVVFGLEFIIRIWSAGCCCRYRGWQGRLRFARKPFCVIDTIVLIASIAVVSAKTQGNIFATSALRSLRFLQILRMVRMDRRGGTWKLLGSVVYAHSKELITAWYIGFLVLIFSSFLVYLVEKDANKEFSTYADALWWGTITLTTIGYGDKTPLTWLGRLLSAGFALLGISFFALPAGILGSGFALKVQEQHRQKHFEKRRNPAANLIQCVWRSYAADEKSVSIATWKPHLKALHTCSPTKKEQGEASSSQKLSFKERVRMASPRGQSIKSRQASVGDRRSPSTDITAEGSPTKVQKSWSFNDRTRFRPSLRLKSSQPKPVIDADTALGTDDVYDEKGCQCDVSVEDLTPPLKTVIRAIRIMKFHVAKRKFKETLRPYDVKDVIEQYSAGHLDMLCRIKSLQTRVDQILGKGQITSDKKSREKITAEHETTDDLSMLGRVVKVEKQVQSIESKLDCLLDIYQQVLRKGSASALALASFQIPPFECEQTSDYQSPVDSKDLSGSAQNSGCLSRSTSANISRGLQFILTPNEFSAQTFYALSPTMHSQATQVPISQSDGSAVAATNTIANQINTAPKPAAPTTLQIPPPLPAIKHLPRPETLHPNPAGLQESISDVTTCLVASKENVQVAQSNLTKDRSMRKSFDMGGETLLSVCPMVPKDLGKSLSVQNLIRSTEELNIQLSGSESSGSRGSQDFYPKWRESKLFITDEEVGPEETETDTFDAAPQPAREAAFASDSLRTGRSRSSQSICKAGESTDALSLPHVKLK
Sequence of human Kv7.5/7.3 (O43525 whole entry): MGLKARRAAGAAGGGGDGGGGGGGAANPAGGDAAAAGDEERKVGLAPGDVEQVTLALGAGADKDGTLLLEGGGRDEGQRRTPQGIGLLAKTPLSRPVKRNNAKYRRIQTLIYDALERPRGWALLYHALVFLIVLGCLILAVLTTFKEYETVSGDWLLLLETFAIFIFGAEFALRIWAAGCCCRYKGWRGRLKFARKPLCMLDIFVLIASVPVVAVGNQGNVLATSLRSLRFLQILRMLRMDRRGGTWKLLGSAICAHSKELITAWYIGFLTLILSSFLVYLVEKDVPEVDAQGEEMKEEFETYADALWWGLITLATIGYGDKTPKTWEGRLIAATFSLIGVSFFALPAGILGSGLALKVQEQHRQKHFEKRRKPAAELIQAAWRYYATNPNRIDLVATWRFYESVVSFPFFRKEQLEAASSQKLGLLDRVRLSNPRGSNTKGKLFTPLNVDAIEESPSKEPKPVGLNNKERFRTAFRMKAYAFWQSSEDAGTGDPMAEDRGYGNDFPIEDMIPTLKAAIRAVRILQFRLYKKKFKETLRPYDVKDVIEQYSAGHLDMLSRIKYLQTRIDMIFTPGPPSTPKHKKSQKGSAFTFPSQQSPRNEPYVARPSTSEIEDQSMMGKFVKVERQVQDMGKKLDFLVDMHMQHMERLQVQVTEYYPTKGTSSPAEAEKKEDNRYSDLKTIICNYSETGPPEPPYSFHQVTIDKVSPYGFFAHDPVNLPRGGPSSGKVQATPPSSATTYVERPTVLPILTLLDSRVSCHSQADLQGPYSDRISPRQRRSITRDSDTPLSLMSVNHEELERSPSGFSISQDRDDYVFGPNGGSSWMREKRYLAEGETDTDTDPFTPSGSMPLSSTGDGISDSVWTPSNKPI
Sequence of human Kv7.2 (O43526 whole entry): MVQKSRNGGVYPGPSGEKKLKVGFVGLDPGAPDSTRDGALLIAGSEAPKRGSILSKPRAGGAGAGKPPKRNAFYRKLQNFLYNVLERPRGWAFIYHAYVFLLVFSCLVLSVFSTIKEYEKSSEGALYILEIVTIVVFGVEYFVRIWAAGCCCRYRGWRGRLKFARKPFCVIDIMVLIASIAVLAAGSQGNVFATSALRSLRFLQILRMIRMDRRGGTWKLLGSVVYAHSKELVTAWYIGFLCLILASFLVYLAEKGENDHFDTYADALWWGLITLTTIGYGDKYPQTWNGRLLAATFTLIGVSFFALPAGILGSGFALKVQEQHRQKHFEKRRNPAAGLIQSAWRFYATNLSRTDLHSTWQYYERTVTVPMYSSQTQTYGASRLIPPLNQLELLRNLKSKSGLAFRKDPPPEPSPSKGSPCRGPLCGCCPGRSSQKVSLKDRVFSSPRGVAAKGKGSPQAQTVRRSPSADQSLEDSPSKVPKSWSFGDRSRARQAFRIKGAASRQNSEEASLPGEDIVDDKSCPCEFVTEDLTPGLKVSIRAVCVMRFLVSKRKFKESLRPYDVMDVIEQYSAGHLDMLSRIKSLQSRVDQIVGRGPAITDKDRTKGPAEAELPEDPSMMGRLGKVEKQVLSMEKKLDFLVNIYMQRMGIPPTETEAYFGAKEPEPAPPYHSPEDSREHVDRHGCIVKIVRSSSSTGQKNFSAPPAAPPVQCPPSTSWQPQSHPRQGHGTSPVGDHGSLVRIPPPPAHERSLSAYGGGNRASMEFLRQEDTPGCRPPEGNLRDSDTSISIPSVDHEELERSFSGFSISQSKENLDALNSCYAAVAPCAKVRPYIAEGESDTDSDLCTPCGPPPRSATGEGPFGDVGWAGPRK

SMILES	EC50 (human Kv7.2; [2])	microsomal CLint at 0.5 μM [1]	EC50 (human Kv7.5/7.3)	Kv7.5/7.3/Kv7.2 selectivity ratio (human Kv7.5/7.3)	EC50 (human Kv7.2; Table A)	EC50 (human Kv7.4)	Kv7.4/Kv7.2 selectivity ratio (human Kv7.4)	EC50 (human Kv7.2; Table C)
O=C(NCc1ccnc(OC(F)F)c1)N[C@H]1CC2(CCC2)[C@@H]1O (racemic) [Example 25, 1-[[2-(difluoromethoxy)pyridin-4-yl]methyl]-3-[rac-(2R,3R)-3-hydroxyspiro[3.3]heptan-2-yl]urea]	740 nM	14.2 µL/min/mg	> 30000 nM	>41				
O=C(NCc1ccnc(OC(F)F)c1)NC1CCOC2(CCCC2)C1 (stereo not shown) [Example 14, 1-[[2-(difluoromethoxy)pyridin-4-yl]methyl]-3-(6-oxaspiro[4.5]decan-9-yl)urea]	260 nM	20 µL/min/mg	> 30000 nM	>116	260 nM			
O=C(NCc1ccnc(OC(F)F)c1)NC1CCOC2(CCC2)C1 (stereo not shown) [Example 17, 1-[[2-(difluoromethoxy)pyridin-4-yl]methyl]-3-(5-oxaspiro[3.5]nonan-8-yl)urea]	340 nM	3.8 µL/min/mg	> 30000 nM	>87				
O=C(NCc1ccnc(OC(F)F)c1)N[C@@H]1CCOC2(CCC2)C1 [Example 27, 1-[[2-(difluoromethoxy)pyridin-4-yl]methyl]-3-[(8R)-5-oxaspiro[3.5]nonan-8-yl]urea]	260 nM	20.5 µL/min/mg	> 30000 nM	>115	260 nM	> 30000 nM	>115	260 nM

These reach a lower EC50 (human Kv7.2; [2]). Values come first.

EC50 (human Kv7.2; [2])	microsomal CLint at 0.5 μM [1]	EC50 (human Kv7.5/7.3)	Kv7.5/7.3/Kv7.2 selectivity ratio (human Kv7.5/7.3)	EC50 (human Kv7.2; Table A)	EC50 (human Kv7.4)	Kv7.4/Kv7.2 selectivity ratio (human Kv7.4)	EC50 (human Kv7.2; Table C)	SMILES
210 nM	20.4 µL/min/mg	> 30000 nM	>146	210 nM	> 30000 nM	>143	210 nM	O=C(NCc1ccnc(OC(F)F)c1)NC1CCOC2(CCCC2(F)F)C1 (stereo not shown) [Example 21, 1-[[2-(difluoromethoxy)pyridin-4-yl]methyl]-3-(4,4-difluoro-6-oxaspiro[4.5]decan-9-yl)urea]
140 nM	18.8 µL/min/mg							O=C(NCc1ccnc(OC(F)F)c1)NC1CCC2(CC1)CC2(F)F (stereo not shown) [Example 31, 1-[[2-(difluoromethoxy)pyridin-4-yl]methyl]-3-(2,2-difluorospiro[2.5]octan-6-yl)urea]
